Test results: US20090074885A1, “Reversible Hydrophobic Modification of Drugs for Improved Delivery to Cells” (Roche Madison Inc., priority 2003, published 2009)
Read-outs that look alike come from different tables or passages of the source.

What was measured:
[1] = tested on: MC38 metastases and hepatic cells; assay: Portal vein injection in tumor-bearing mice; type: in vivo, mouse
Protocol: For intraportal injections both the portal vein and the celiac artery were clamped to occlude blood flow into the liver. In other experiments, the portal vein and the celiac artery were not clamped, preserving full portal blood flow during the experiment. In all cases, the vena cava was not clamped in order to avoid increased pressure within the liver during the injection procedure. For experiments with occluded blood flow, the blood in the liver was flushed out with 1 ml of ITG delivered through the portal vein (1 min). Then 0.300 μmol of PI or II in 40 μl of DMF was delivered together with 400 μl of ITG via the mixing chamber. Five min after injection the livers were perfused with 3 ml of ITG to flush any drug remaining in the vasculature, and livers were sectioned as above or the hepatocytes were isolated.

Jurkat cells = assay: Flow cytometry of prodrug delivery to Jurkat cells; type: cell-based, human
Protocol: For experiments conducted on Jurkat cells (8.0×10^5 cells/ml in media), the cells were isolated by centrifugation and resuspended in ITG at a density of 4.0×10^6 cells/ml. Exposure to the drug/prodrug was conducted by passing the cells in suspension in ITG (200 μl) through the mixing chamber. After 30 sec the cells were centrifuged and the drug solution was removed (aspirated), the cells were resuspended in complete media (2 ml) and plated in 6-well plates for imaging. Passing the cells through the mixing chamber (no drug/prodrug treatment) had no effect on cell viability when compared to cells plated without passing through the mixing chamber.
Flow cytometry was conducted on a FacsCalibur Flow Cytometer (Becton Dickinson Biosciences). Jurkat cells were isolated and treated with PI and II as previously described. After 4 min the cells were centrifuged and the drug solution was removed (aspirated) and 1 ml complete media was added to the cells. During analysis, PI was added to control cells (1 ml of 8.0×10^5 cells/ml in complete media, 1 drop of 1 mg/ml PI solution, no OS or mixing chamber) to determine normal cell senescence. Data were collected for a total of 10,000 events using Cell Quest™ (Becton Dickinson Biosciences), and analyzed with FlowJo (Tree Star Inc.) for single cell events (approximately 80% of events), and secondly for PI. For Jurkat cells treated with II, forward scatter was analogous to control cells, while side scatter increased approximately two fold. Reported data represents a histogram of PI intensity for single cell events from four independent preparations. Cells were considered PI positive at a value of 100 on the PI intensity axis of the histogram for the cell percentages described.

[2] = Analysis of prodrug lability (rate of hydrolysis) of PI derivatives by fluorescent spectroscopy; type: physicochemical; details: for Half-life: extrapolated to pure buffer (100 mol % H2O)
Protocol: Analysis of prodrug lability. The prodrugs were tested for their rate of hydrolysis at pH 6.0, 7.2 and 8.5 using fluorescent spectroscopy. Lability studies for C12CON-PI and RRH-PI (rapidly reversible hydrophobic-PI) derivatives were conducted on a Cary Eclipse Fluorescence Spectrophotometer (Varian Inc.).
To solutions of PI and RRH-prodrugs of PI (7.48 μM in DMSO) were added various amounts of buffer (25 μL, 50 μL, and 100 μL of 20 mM Hepes buffer) at different pH. Upon cleavage of the hydrophobic modification and regeneration of PI, the fluorescence of the solution increased (λex=493 nm, λem=647 nm, excitation and emission slit width=5 nm, and emission PMT=600V) and was assayed as a function of time (20 min).
The resulting curves were normalized for intensity and fit to an exponential equation (Origin) to determine kdetermined for each solution. The kdetermined for each compound at appropriate pH were plotted against the mol % of H2O, and the best fit line was solved for kbuffer for 100 mol % H2O. These derived kbuffer values were used to determine the half-life of the prodrug in pure buffer according to the equation t1/2=1n2/k.

[3] = tested on: SK-OV-3 (human ovarian carcinoma); assay: WST cytotoxicity assay, SK-OV-3; type: cell-based; details: SK-OV-3, 4 min drug exposure, read-out: Mean IC50
Protocol: Antiproliferative/Cytotoxic in vitro studies on PI, RRH-PI prodrugs, melphalan, and C12PMMA-melphalan. In vitro cytotoxicity testing was conducted on Hepa 1-6 (mouse hepatoma), SK-OV-3 (human ovarian carcinoma), and MC38 (mouse colon carcinoma) cells using a tetrazolium based assay (WST, Dojindo Molecular Technologies). For the WST assay, Hepa 1-6 (2.0×10^5 cells well), SK-OV-3 (7.5×10^5 cells well), and MC38 (8.5×10^5 cells well) were seeded in 1000 μL media into 12-well plates 24 h prior to testing (starting confluency ˜50%). Following removal of media, drug/prodrug solution was added drop-wise to quadruplicate wells, using the mixing chamber. Effective drug concentrations were calculated from the amount of drug added in the total volume of OS and aqueous solution. Following 4 min of drug solution exposure, the solution was removed, and 1000 μl fresh complete media was added to each well. After the cells were incubated for 24-48 h, WST-1 (20 μl of a 5 mM solution in PBS) and N-methylphenazonium methyl sulfate (PMS, 20 μl 0.2 mM solution in PBS) were added and the cells were incubated for 1-4 h. For testing with MC38 cells, the amounts of WST-1 and PMS were doubled. Following incubation, 100 μl of sample was transferred to quadruplicate wells on a 96-well plate, and the absorbance (438 nm) values were measured on a SPECTRAmax Plus^384 microplate spectrophotometer (Molecular Devices Corporation). Data represents the mean A438 values of 16 wells with standard deviation, corrected for media contribution, and normalized against cells in media with no drug/prodrug treatment (reported as % cell viability±standard deviation).
The concentration of drug (μM) that is required for 50% inhibition in vitro is reported as the IC50. The reported values were calculated from the best fit line (Excel) for a plot of effective drug concentration against % cell viability, and include the r^2 value. The reported IC50 values for multiple RRH-PI plots are reported as IC50 (μM)±standard deviation.

[4] = portal vein and celiac artery clamped (occluded blood flow)
[5] = cells suspended in ITG passed through mixing chamber with drug in DMSO

SMILES | PI labeling after portal vein injection [1, 4] | PI labeling after portal vein injection ([1]; preserved portal blood flow) | PI labeling after portal vein injection ([1]; preserved portal blood flow, listed as BDMODS-PI) | PI positive cells (signal above 100) (Jurkat cells; [5]) | k ([2]; pH 7.2) | Half-life ([2]; pH 7.2) | Half-life ([2]; pH 7.2, listed as BDMODS-PI (II)) | k ([2]; pH 8.5) | Half-life ([2]; pH 8.5) | Half-life ([2]; pH 8.5, listed as BDMODS-PI (II)) | IC50 ([3]; WST 24 h after) | IC50 ([3]; WST 48 h after) | nuclear staining after portal vein injection ([1]; 400 μl into portal vein of liver with MC38 metastases) | PI positive cells (signal above 100) (Jurkat cells; PI in aqueous solution, no OS, no mixing chamber (control))
CCCCCCCCCCCCCCCCCC[Si](C)(C)Nc1ccc2c(c1)c(-c1ccccc1)[n+](CCC[N+](C)(CC)CC)c1cc(N[Si](C)(C)CCCCCCCCCCCCCCCCCC)ccc21.[I-].[I-] [II, 3,8-bis[((dimethyl)octadecylsilazyl)amine] 5-(3,3-diethyl-3-methylammoniumpropyl) 6-phenyl phenanthridinium diiodide] | prominent labeling of portal structures and adjacent cells, including hepatocytes, but not of the metastases | all metastases were PI-negative | No labeled cells in MC38 metastases | 99.5±0.1% | (3.96 min^−1) | 11 s | 10.5 s | (1.80 min^−1) | 23 s | 23.1 s | 194 µM | 257 µM | – | –
CC[N+](C)(CC)CCC[n+]1c(-c2ccccc2)c2cc(N)ccc2c2ccc(N)cc21.[I-].[I-] [PI, Propidium iodide, reference compound] | a few labeled cells | – | – | 8.4±0.6% | – | – | – | – | – | – | > 1250 µM | > 1700 µM | did not result in nuclear staining of any structures | 0.3±0.1%
CCCCCCCCCCCCNC(=O)CCC(=CCC(=O)O)C(=O)Nc1ccc2c(c1)c(-c1ccccc1)[n+](CCC[N+](C)(CC)CC)c1cc(NC(=O)C(=CCC(=O)O)CCC(=O)NCCCCCCCCCCCC)ccc21.[I-].[I-] [III, 3,8-bis-[2-(2 carboxyethylidene)-4-(dodecarbamoyl)-1-oxo-butylamine] 5-(3,3-diethyl-3-methylammoniumpropyl) 6-phenyl phenanthridinium diiodide] | – | – | – | – | (5.05 min^−1) | – | – | (1.97 min^−1) | – | – | – | – | – | –
